How the values were obtained:
[1] = test system: second instar larvae of diamond backmoth (Plutella xylostella); experiment: Insecticidal activity against diamond backmoth, leaf disc spraying by airbrush; assay type: in vivo; details: mortality after 72 hrs, sprayed cabbage leaf disc
Protocol: To determine the insecticidal and acaricidal activity of selected compounds by the following procedures:
Compounds were dissolved in mixed solvent (acetone:methanol=1:1), and diluted to required concentration with water containing 0.1% of tween 80.
The second instar larvae of diamond backmoth (Plutella xylostella) were used in biological test. The method of spraying by airbrush was employed.
Determination of insecticidal activity against diamond backmoth: The cabbage leaves were made into plates of 1 cm diameter by punch. A test solution (0.5 ml) was sprayed by airbrush at the pressure of 0.7 kg/cm^2 to both sides of every plate. 10 Second instar larvae were put into the petri-dishes after the leaf disc air-dried and 3 replicates were set for each treatment. Then the insects were maintained in observation room ([…], 60-70% R.H.). Scores were conducted and mortalities were calculated after 72 hrs.

[2] = test system: wheat powdery mildew; experiment: Fungicidal activity in vivo on potted plants; details: 400 ppm; sprayed on potted plant, inoculation after 24 hours, visual assessment after about 1 week
Protocol: Determination of fungicidal activities against plant diseases of selected compounds were carried out by the following procedure:
Determination of Fungicidal Activity In Vivo:
Plants were prepared in pot. Compounds were dissolved in acetone and diluted to required concentration by water containing 0.1% (wt) Tween80. Test solution was sprayed onto potted plant. Pathogen inoculation was carried out after 24 hours, then plants were hold in growth chambers maintaining constant temperature and moisture for infection. When untreated plant was under desirable disease severity (after 1 week approximately), assessment was carried out by visual observation.

SMILES	control of the second instar larvae of diamond backmoth ([1]; dose 100 mg/L) [%]	further results
Cn1nc(-c2ccccc2)cc1OCCCOc1c(Cl)cc(OCC=C(Cl)Cl)cc1Cl [Compound 1]	100	
Cn1nc(-c2ccc(Cl)cc2)cc1OCCCOc1c(Cl)cc(OCC=C(Cl)Cl)cc1Cl [Compound 2]	100	control of the second instar larvae of diamond backmoth ([1]; dose 25 mg/L): 100%; control of wheat powdery mildew [2]: more than 70%
CSc1ccc(-c2cc(OCCCOc3c(Cl)cc(OCC=C(Cl)Cl)cc3Cl)n(C)n2)cc1 [Compound 8]	100	
Cn1nc(-c2ccc(Cl)cc2Cl)cc1OCCCOc1c(Cl)cc(OCC=C(Cl)Cl)cc1Cl [Compound 11]	100	
COc1ccc(-c2cc(OCCCOc3c(Cl)cc(OCC=C(Cl)Cl)cc3Cl)n(C)n2)cc1 [Compound 13]	100	
Cn1nc(-c2ccc(Br)cc2)cc1OCCCOc1c(Cl)cc(OCC=C(Cl)Cl)cc1Cl [Compound 16]	100	
Cc1ccc(-c2cc(OCCCOc3c(Cl)cc(OCC=C(Cl)Cl)cc3Cl)n(C)n2)cc1 [Compound 17]	100	
CCc1ccc(-c2cc(OCCCOc3c(Cl)cc(OCC=C(Cl)Cl)cc3Cl)n(C)n2)cc1 [Compound 18]	100	
COc1ccccc1-c1cc(OCCCOc2c(Cl)cc(OCC=C(Cl)Cl)cc2Cl)n(C)n1 [Compound 24]	100	
Cc1ccc(-c2cc(OCCCOc3c(Cl)cc(OCC=C(Cl)Cl)cc3Cl)n(C)n2)c(C)c1 [Compound 26]	100	
CCCc1ccc(-c2cc(OCCCOc3c(Cl)cc(OCC=C(Cl)Cl)cc3Cl)n(C)n2)cc1 [Compound 38]	100	
Cc1c(-c2ccccc2)nn(C)c1OCCCOc1c(Cl)cc(OCC=C(Cl)Cl)cc1Cl [Compound 76]	100	
Cc1c(-c2ccc(Cl)cc2)nn(C)c1OCCCOc1c(Cl)cc(OCC=C(Cl)Cl)cc1Cl [Compound 77]	100	
Cc1c(-c2ccc(Cl)cc2Cl)nn(C)c1OCCCOc1c(Cl)cc(OCC=C(Cl)Cl)cc1Cl [Compound 86]	100	
Cc1ccc(-c2nn(C)c(OCCCOc3c(Cl)cc(OCC=C(Cl)Cl)cc3Cl)c2C)cc1 [Compound 92]	100	
Cn1nc(-c2ccc(Cl)cc2)cc1OCCOc1c(Cl)cc(OCC=C(Cl)Cl)cc1Cl [Compound 225]	100	control of the second instar larvae of diamond backmoth ([1]; dose 25 mg/L): 100%
Cn1nc(-c2ccc(Cl)cc2)cc1OCCCCOc1c(Cl)cc(OCC=C(Cl)Cl)cc1Cl [Compound 247]	100	control of the second instar larvae of diamond backmoth ([1]; dose 25 mg/L): 100%
Cn1nc(-c2ccc(Cl)cc2)cc1OCCCCOc1ccc(OCC=C(Cl)Cl)cc1Cl [Compound 248]	100	control of the second instar larvae of diamond backmoth ([1]; dose 25 mg/L): 100%
Cc1c(-c2ccccc2)nn(C)c1OCCCCOc1c(Cl)cc(OCC=C(Cl)Cl)cc1Cl [Compound 257]	100	
Cn1nc(OCCCOc2c(Cl)cc(OCC=C(Cl)Cl)cc2Cl)cc1-c1ccccc1 [Compound 268]	100	control of the second instar larvae of diamond backmoth ([1]; dose 25 mg/L): 100%
Cn1nc(OCCCOc2c(Cl)cc(OCC=C(Cl)Cl)cc2Cl)cc1-c1ccc(Cl)cc1 [Compound 269]	100	control of the second instar larvae of diamond backmoth ([1]; dose 25 mg/L): 100%
Cn1nc(OCCCOc2c(Cl)cc(OCC=C(Cl)Cl)cc2Cl)cc1-c1ccc(Cl)cc1Cl [Compound 278]	100	

SMILES	control of the second instar larvae of diamond backmoth ([1]; dose 100 mg/L) [%]	further results
COc1ccc(-c2cc(OCCCOc3c(Cl)cc(OCC=C(Cl)Cl)cc3Cl)nn2C)cc1 [Compound 280]	100	
Cn1nc(OCCCOc2c(Cl)cc(OCC=C(Cl)Cl)cc2Cl)cc1-c1ccc(Br)cc1 [Compound 283]	100	
Cc1ccc(-c2cc(OCCCOc3c(Cl)cc(OCC=C(Cl)Cl)cc3Cl)nn2C)cc1 [Compound 284]	100	
Cc1ccc(-c2cc(OCCCOc3c(Cl)cc(OCC=C(Cl)Cl)cc3Cl)nn2C)c(C)c1 [Compound 293]	100	
Cn1nc(OCCCOc2c(Cl)cc(OCC=C(Cl)Cl)cc2Cl)cc1-c1ccc(C(C)(C)C)cc1 [Compound 306]	100	
Cc1c(OCCCOc2c(Cl)cc(OCC=C(Cl)Cl)cc2Cl)nn(C)c1-c1ccc(F)cc1 [Compound 352]	100	control of the second instar larvae of diamond backmoth ([1]; dose 25 mg/L): 100%
CCOc1ccc(-c2c(C)c(OCCCOc3c(Cl)cc(OCC=C(Cl)Cl)cc3Cl)nn2C)cc1 [Compound 356]	100	
Cc1c(OCCCOc2c(Cl)cc(OCC=C(Cl)Cl)cc2Cl)nn(C)c1-c1ccc(Cl)cc1Cl [Compound 360]	100	
Cc1c(OCCCOc2c(Cl)cc(OCC=C(Cl)Cl)cc2Cl)nn(C)c1-c1ccc(Cl)c(Cl)c1 [Compound 361]	100	
COc1ccc(-c2c(C)c(OCCCOc3c(Cl)cc(OCC=C(Cl)Cl)cc3Cl)nn2C)cc1 [Compound 363]	100	
Cc1ccc(-c2c(C)c(OCCCOc3c(Cl)cc(OCC=C(Cl)Cl)cc3Cl)nn2C)cc1 [Compound 367]	100	control of the second instar larvae of diamond backmoth ([1]; dose 25 mg/L): 100%
CCc1ccc(-c2c(C)c(OCCCOc3c(Cl)cc(OCC=C(Cl)Cl)cc3Cl)nn2C)cc1 [Compound 368]	100	
Cc1ccc(-c2c(C)c(OCCCOc3c(Cl)cc(OCC=C(Cl)Cl)cc3Cl)nn2C)cc1C [Compound 377]	100	control of the second instar larvae of diamond backmoth ([1]; dose 25 mg/L): 100%
Cc1c(OCCCOc2c(Cl)cc(OCC=C(Cl)Cl)cc2Cl)nn(C)c1-c1ccc(C(C)C)cc1 [Compound 387]	100	control of the second instar larvae of diamond backmoth ([1]; dose 25 mg/L): 100%
Cc1c(OCCCOc2c(Cl)cc(OCC=C(Cl)Cl)cc2Cl)nn(C)c1-c1ccc(C(C)(C)C)cc1 [Compound 389]	100	
Cn1nc(OCCOc2c(Cl)cc(OCC=C(Cl)Cl)cc2Cl)cc1-c1ccc(Cl)cc1 [Compound 500]	100	
Cn1nc(OCCCCOc2c(Cl)cc(OCC=C(Cl)Cl)cc2Cl)cc1-c1ccc(Cl)cc1 [Compound 522]	100	
Cc1c(OCCCCOc2c(Cl)cc(OCC=C(Cl)Cl)cc2Cl)nn(C)c1-c1ccccc1 [Compound 532]	100	
Cc1ccc(-c2c(C)c(OCCCCOc3c(Cl)cc(OCC=C(Cl)Cl)cc3Cl)nn2C)cc1 [Compound 538]	100	
ClC(Cl)=CCOc1cc(Cl)c(OCCCOc2cnn(-c3ccc(Cl)cc3)c2)c(Cl)c1 [Compound 546]	100	
FC(F)(F)c1ccc(OCCCOc2c(Cl)cc(OCC=C(Cl)Cl)cc2Cl)nc1 [pyridalyl, Pyridalyl, reference compound]	100	control of the second instar larvae of diamond backmoth ([1]; dose 6.25 mg/L): 65%; control of the second instar larvae of diamond backmoth ([1]; dose 25 mg/L): 100%

Source: patent US8222280B2, “Ether compounds with nitrogen-containing 5-member heterocycle and uses thereof” (Sinochem Corporation, priority 2008, dated 2012)
